Assay results published in patent publication US10774082B2, “Quinazoline compound” (Astellas Pharma Inc., priority 2017, dated 2020).
Read-outs that look alike come from different tables or passages of the source.

What was measured:
[1] = target: T1, KRAS G12C/SOS/c-Raf complex (Homo sapiens, UniProt P01116, G12C); test: KRAS G12C/SOS/c-Raf complex formation inhibitory action (TR-FRET); type: biochemical; settings: one hour at room temperature, read-out: IC50 (KRAS G12C/SOS/c-Raf complex formation inhibition)
T1 construct: Biotinylated AviTag-KRAS G12C (amino acid region 1-185, GDP)
T1 sequence (P01116 1-185 isoform P01116-2 G12C, one chain of several): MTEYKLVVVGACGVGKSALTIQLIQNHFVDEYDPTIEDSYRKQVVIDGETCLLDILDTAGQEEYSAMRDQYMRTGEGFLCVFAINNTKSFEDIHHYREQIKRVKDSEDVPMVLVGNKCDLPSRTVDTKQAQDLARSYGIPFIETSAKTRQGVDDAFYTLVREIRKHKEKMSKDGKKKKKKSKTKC
Protocol: Evaluation of KRAS G12C/SOS/c-Raf Complex Formation Inhibitory Action
Human Recombinant KRAS G12C, SOS, and c-Raf protein were used, and with respect to the complex formation of these proteins, an inhibitory action of the test compound was examined through a time-resolved fluorescence resonance energy transfer (TR-FRET) method.
Biotinylated AviTag-KRAS G12C (amino acid region 1-185, GDP) (2.5 μL; 400 nM) dissolved in assay buffer (50 mM HEPES, 150 mM NaCl, 5 mM MgCl2, 0.05% Tween 20, pH 7.4) and test compound were added in a volume of 2.5 μL from 4,000 nM to 4 nM were added to 384 well plate (Corning Inc). Son of Sevenless (SOS) (amino acid region 564-1049, 2.5 μL; 1.3 μM) and c-Raf (amino acid region 51-131) GST containing GTP (Sigma-Aldrich Co. LLC) (2.5 μL; 130 nM and 4 μM of each) were added to the above mixture, and the resultant was left to stand for one hour at room temperature. Thereafter, a mixed solution (10 μL) of LANCE Ulight-anti-GST (120 nM, PerkinElmer. Co., Ltd) and LANCE Eu-W1024 labeled Streptoavidin (100 ng/mL, PerkinElmer. Co., Ltd) was added, and a fluorescence intensity on the condition of wavelength of 620 nm and 665 nm was measured by using EnVision 2103 Multilabel Reader (PerkinElmer Co., Ltd.) under the condition of excitation wavelength of 337 nm. […] In Tables, Ex represents Example numbers described later. In addition, in Tables, Compound C represents a test compound of Example I-59 disclosed in Pamphlet of International Publication No. WO 2016/164675, and the structures of Reference Example 1 and Reference Example 2 are indicated in Table 168 described below (the same shall apply hereinafter).

[2] = test system: ERK phosphorylation (Thr 202/Tyr 204) in NCI-H1373 cells; test: ERK phosphorylation inhibitory action in NCI-H1373 (Cell ELISA); type: cell-based, Human; settings: Homo sapiens, NCI-H1373, 2 h, read-out: IC50 (ERK phosphorylation inhibition)
Protocol: Evaluation of ERK Phosphorylation Inhibitory Action with Respect to Human KRAS G12C Mutation Positive Non-Small Cell Lung Cancer Strain NCI-H1373
The ERK phosphorylation inhibitory action by the test compound was evaluated by measuring phosphorylation of 202th threonine (Thr 202) and 204th tyrosine (Tyr 204) of ERK on the downstream of the KRAS signal by Cell ELISA.
NCI-H1373 cells (ATCC, CRL-5866) were seeded in 384 well plates (Greiner bio-one) at 36 μL/well each so as to be 2×10^4 cell per well. Cell culture was performed under the conditions of temperature of 37° C. in the presence of 5% CO2 by using RPMI 1640 medium (Sigma-Aldrich Co. LLC) containing 10% fetal bovine serum (GE Life Sciences).
The next day, the test compounds (six points in a range of final concentration 1,000 nM to 0.3 nM), final concentration 1 μM of Trametinib (GlaxoSmithKline Inc.; MEK inhibitor) as a positive control, and DMSO which is a solvent of the test compound as a negative control were diluted 100-fold with fresh medium, 4 μL each was added to each well, and then cultured for 2 hours. Immediately after culturing, 30 μL of 30% glyoxal solution (Wako: 40% glyoxal diluted with Phosphate Buffered Saline (PBS; Wako)) was added to each well, and the cells were left to stand at room temperature for one hour to be fixed. Thereafter, the supernatant was removed by centrifuging the plate (110×g for 7 seconds, unless otherwise stated below under the same conditions), and 20 μL of PBS containing 0.1% Triton X-100 (Amersham Biosciences Corp.) was added to each well. After being left to stand at room temperature for 10 minutes, the supernatant was removed by centrifugation, and the same operation was repeated. Next, 20 μL of PBS containing 0.5% SDS (Invitrogen) was added to each well, and the mixture was left to stand at room temperature for 30 minutes, and then centrifuged to remove the supernatant. Subsequently, 20 μL of a blocking solution (ODYSSEY Blocking Buffer; LI-COR Biosciences) was added to each well, and left to stand at room temperature for one hour. The supernatant was removed by centrifugation, and 10 μL of a blocking solution prepared by diluting ERK (Thr 202/Tyr 204) of a phosphorylation antibody (Cell Signaling Technology, Inc.) as a primary antibody to be ½, 500 amount with respect to a stock solution was added to each well and was left to stand at 4° C. for overnight.
The next day, a reaction liquid is removed by centrifuging the plate, 20 μL of 0.05% Tween-20-containing PBS (Thermo Scientific; 20×PBS Tween-20 diluted 20-fold with ion exchanged water) was added to each well, and each well was washed by removing the supernatant by centrifugation. Washing was performed three times in total. After washing, 10 μL of a blocking solution prepared by diluting IRDye 800CW Goat anti-Rabbit IgG (LI-COR Biosciences) as a secondary antibody to be 1/1,000 amount with respect to a stock solution was added to each well and was left to stand at room temperature for one hour. The reaction liquid was removed by centrifuging the plate, and each well was washed three times with 0.05% Tween-20-containing PBS in the same manner as after primary antibody reaction. The centrifugation after the third wash was 171×g for 17 seconds. After removal of the cleaning solution, the plate was left to air dry at room temperature for three hours or more and the fluorescent signal at 800 nm was measured by Aerius (LI-COR Biosciences).
When a signal value at the time of adding DMSO was set as 0% inhibition, and a signal value at the time of adding 1 μM of Trametinib was set as 100% inhibition, a value of 50% inhibition (IC50) was calculated through Sigmoid-Emax model nonlinear regression analysis.

NCI-H1373 cells = test: Anchorage-independent cell proliferation inhibitory action, NCI-H1373 spheroid three-dimensional culture; type: cell-based, Human; settings: Homo sapiens, NCI-H1373, 144 h, read-out: IC50 (anchorage-independent cell proliferation inhibition)
Protocol: Evaluation of Anchorage-Independent Cell Proliferation Inhibitory Action with Respect to Human KRAS G12C Mutation Positive Non-Small Cell Lung Cancer Strain NCI-H1373
An anchorage-independent cell proliferation inhibitory action by the test compound was evaluated by a spheroid three-dimensional culture.
NCI-H1373 cells were seeded in cell low adsorption U bottom 384 well plates (Prime Surface: Sumitomo Bakelite Co., Ltd.) at 36 μL/well each so as to be 5×10^2 cell per well. The cell culture was performed under the same conditions as Test example 2.
The next day, the test compounds (six points in a range of final concentration 1,000 nM to 0.3 nM) and DMSO which is a solvent of the test compound as a negative control were diluted 100-fold with fresh medium, 4 μL each was added to each well. After culturing at 37° C. in the presence of 5% CO2 for six days, 20 μL of CellTiter Glo or to CellTiter Glo 2.0 (Promega Corporation) was added to each well. After stirring for one hour at room temperature using a plate mixer (FINEPCR), an emission signal was measured with ARVO X3 (PerkinElmer Co., Ltd.).
When a signal value in a DMSO treatment was set as 0% inhibition, and a signal value in cell-free medium only was set as 100% inhibition, a value of 50% inhibition (IC50) was calculated through Sigmoid-Emax model nonlinear regression analysis.

[3] = NCI-H1373 cells, cultured for 2 hours, 100% = 1 μM Trametinib
[4] = NCI-H1373 spheroid, six days, CellTiter Glo

| SMILES | IC50 [1] | IC50 [2, 3] | IC50 (NCI-H1373 cells; [4]) | IC50 [2] | IC50 (NCI-H1373 cells) |
| --- | --- | --- | --- | --- | --- |
| C=CC(=O)N1CC2(CCN(c3nc(OC4CCN(C)CC4)nc4c(OCC(F)F)c(-c5c(C)ccc6[nH]ncc56)c(C=C)cc34)CC2)C1 [Ex 1] | 34 nM | 6.4 nM | 12 nM |  |  |
| C=CC(=O)N1CC2(CCN(c3nc(OC4CCN(CCOC)CC4)nc4c(OCC(F)(F)F)c(-c5c(C)ccc6[nH]ncc56)c(C=C)cc34)CC2)C1 [Ex 36] | 21 nM |  |  |  |  |
| C=CC(=O)N1CC2(CCN(c3nc(OC4CCN(CCCOC)CC4)nc4c(OCC(F)(F)F)c(-c5c(C)ccc6[nH]ncc56)c(C5CC5)cc34)CC2)C1 [Ex 38] | 15 nM |  |  |  |  |
| C=CC(=O)N1CC2(CCN(c3nc(OC4CCN(CCOCC5CC5)CC4)nc4c(OCC(F)(F)F)c(-c5c(C)ccc6[nH]ncc56)c(C=C)cc34)CC2)C1 [Ex 41] | 42 nM | 6.2 nM | 14 nM |  |  |
| C=CC(=O)N1CC2(CCN(c3nc(SC4CCN(C)CC4)nc4c(OCC(F)(F)F)c(-c5c(C)ccc6[nH]ncc56)c(C=C)cc34)CC2)C1 [Ex 51] | 59 nM | 8.9 nM | 24 nM |  |  |
| COCCN1CCC(Oc2nc(N3CCC4(CC3)CN(C(=O)/C=C/C(F)(F)F)C4)c3cc(C4CC4)c(-c4c(C)ccc5[nH]ncc45)c(OCC(F)F)c3n2)CC1 [Ex 82] | 43 nM | 16 nM | 62 nM |  |  |
| C=CC(=O)N1CC2(CCN(c3nc(OC4CCN(CC)CC4)nc4c(OCC)c(-c5c(C)c(F)cc6[nH]ncc56)c(C=C)cc34)CC2)C1 [Example 8] | 32 nM | 2.6 nM | 3.5 nM |  |  |
| C=CC(=O)N1CC2(CCN(c3nc(OC4CCN(CC)CC4)nc4c(OCC(F)(F)F)c(-c5c(C)ccc6[nH]ncc56)c(C=C)cc34)CC2)C1 [Example 9] | 55 nM | 3.8 nM | 5.5 nM |  |  |
| C=CC(=O)N1CC2(CCN(c3nc(OC4CCN(CC)CC4)nc4c(OCC(F)F)c(-c5c(C)ccc6[nH]ncc56)c(C=C)cc34)CC2)C1 [Example 10] | 34 nM | 5.7 nM | 10 nM |  |  |
| C=CC(=O)N1CC2(CCN(c3nc(OC4CCN(CC)CC4)nc4c(OC5CC(F)(F)C5)c(-c5c(C)ccc6[nH]ncc56)c(C=C)cc34)CC2)C1 [Example 11] | 38 nM | 10 nM | 12 nM |  |  |
| C=CC(=O)N1CC2(CCN(c3nc(OC4CCN(C(C)C)CC4)nc4c(OCC)c(-c5c(C)ccc6[nH]ncc56)c(C=C)cc34)CC2)C1 [Example 12] | 23 nM |  |  | 6.7 nM | 11 nM |
| C=CC(=O)N1CC2(CCN(c3nc(OC4CCN(CCOC)CC4)nc4c(OCC)c(-c5c(C)ccc6[nH]ncc56)c(C=C)cc34)CC2)C1 [Example 13] | 37 nM |  |  | 11 nM | 13 nM |
| C=CC(=O)N1CC2(CCN(c3nc(OC[C@@H]4CCCN4C)nc4c(OCC(F)F)c(-c5c(C)ccc6[nH]ncc56)c(C=C)cc34)CC2)C1 [Example 14] | 50 nM |  |  | 6.1 nM | 8.8 nM |
| C=CC(=O)N1CC2(CCN(c3nc(OC4CCN(C)CC4)nc4c(OC5CCC5)c(-c5c(C)ccc6[nH]ncc56)c(C=C)cc34)CC2)C1 [Example 17] | 34 nM |  |  | 4.9 nM | 12 nM |
| C=CC(=O)N1CC2(CCN(c3nc(OC4CCN(CC)CC4)nc4c(OCC)c(-c5c(C)ccc6[nH]ncc56)c(C5CC5)cc34)CC2)C1 [Example 18] | 46 nM | 5.9 nM | 7.3 nM |  |  |
| C=CC(=O)N1CC2(CCN(c3nc(OC4CCN(CC)CC4)nc4c(OC5CCC5)c(-c5c(C)ccc6[nH]ncc56)c(C5CC5)cc34)CC2)C1 [Example 19] | 48 nM | 4.5 nM | 15 nM |  |  |
| C=CC(=O)N1CC2(CCN(c3nc(OC4CCN(CC)CC4)nc4c(OC5CCC5)c(-c5c(C)ccc6[nH]ncc56)c(C=C)cc34)CC2)C1 [Example 20] | 32 nM | 6.5 nM | 11 nM |  |  |
| C=CC(=O)N1CC2(CCN(c3nc(OC4CCN(CC)CC4)nc4c(OCC)c(-c5c(Cl)ccc6[nH]ncc56)c(C=C)cc34)CC2)C1 [Example 21] | 65 nM | 14 nM | 27 nM |  |  |
| C=CC(=O)N1CC2(CCN(c3nc(OC4CCN(CC)CC4)nc4c(OCC(F)F)c(-c5c(C)ccc6[nH]ncc56)c(C5CC5)cc34)CC2)C1 [Example 22] | 39 nM | 4.6 nM | 15 nM |  |  |
| C=CC(=O)N1CC2(CCN(c3nc(OC[C@@H]4CCCN4C)nc4c(OCC)c(-c5c(C)ccc6[nH]ncc56)c(C5CC5)cc34)CC2)C1 [Example 23] | 39 nM | 4.9 nM | 5.9 nM |  |  |
| C=CC(=O)N1CC2(CCN(c3nc(OC4CCN(CCCOC)CC4)nc4c(OCC(F)(F)F)c(-c5c(C)ccc6[nH]ncc56)c(C=C)cc34)CC2)C1 [Example 27] | 40 nM | 3.3 nM | 6.5 nM |  |  |
